Here are results for six molecules from BindingDB's records for patent US20230364079 (Chengdu Hyperway Pharmaceuticals, 2023).

The IC50 is the midpoint of a concentration-inhibition curve. A high value points to weaker potency in that assay.

The target in the assay is Tyrosine-protein kinase BTK (Homo sapiens, UniProt Q06187). As to the kind of experiment: BTK Kinase Activity Inhibition Test in Vitro.
Sequence of Tyrosine-protein kinase BTK (Q06187 whole entry): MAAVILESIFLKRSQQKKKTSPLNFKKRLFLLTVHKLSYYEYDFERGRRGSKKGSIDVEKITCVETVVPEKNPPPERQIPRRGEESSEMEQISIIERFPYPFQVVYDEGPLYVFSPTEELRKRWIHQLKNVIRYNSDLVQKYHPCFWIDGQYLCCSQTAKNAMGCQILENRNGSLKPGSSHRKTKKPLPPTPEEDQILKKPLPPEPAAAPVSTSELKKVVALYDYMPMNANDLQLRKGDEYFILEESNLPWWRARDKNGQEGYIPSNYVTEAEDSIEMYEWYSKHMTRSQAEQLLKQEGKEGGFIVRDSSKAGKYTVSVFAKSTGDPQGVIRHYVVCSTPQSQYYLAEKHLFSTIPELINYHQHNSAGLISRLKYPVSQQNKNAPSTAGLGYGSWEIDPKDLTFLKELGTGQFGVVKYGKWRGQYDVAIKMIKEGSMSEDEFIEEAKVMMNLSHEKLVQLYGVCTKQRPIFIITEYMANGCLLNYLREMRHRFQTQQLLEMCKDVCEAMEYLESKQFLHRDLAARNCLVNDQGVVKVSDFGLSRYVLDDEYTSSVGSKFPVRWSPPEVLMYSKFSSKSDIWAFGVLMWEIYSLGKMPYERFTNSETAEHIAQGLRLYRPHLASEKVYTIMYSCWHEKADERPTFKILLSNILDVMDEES
Turning to `Nc1nccn2c(C3CCC(CO)OC3)nc(-c3ccc(Oc4cccc(OC(F)(F)F)c4F)cc3)c12` (stereo unspecified) [US20230364079, Example 6], the concentration for half-maximal inhibition (IC50) was < 5 nM.

Take `Nc1nccn2c(C3CCC(CO)OC3)nc(-c3ccc(Oc4cccc(Cl)c4F)cc3)c12` (stereo unspecified) [US20230364079, Example 9]: the half-inhibitory concentration (IC50) is < 5 nM.

Consider `COc1cccc(Oc2ccc(-c3nc(C4CCC(CO)OC4)n4c(Cl)cnc(N)c34)c(F)c2)c1F` (stereo unspecified) [US20230364079, Example 11], for which the IC50 is < 5 nM. Turning to `COc1cccc(Oc2ccc(-c3nc(C4CCC(CO)OC4)n4c(Cl)cnc(N)c34)cc2)c1F` (stereo unspecified) [US20230364079, Example 12], the half-maximal inhibitory concentration (IC50) was < 5 nM. Consider `Nc1nccn2c(C3CCC(CO)OC3)nc(-c3ccc(Oc4cccc(OC(F)(F)F)c4F)cc3F)c12` (stereo unspecified) [US20230364079, Example 13], for which the IC50 is < 5 nM. Take `Nc1ncc(Cl)n2c(C3CCC(CO)OC3)nc(-c3ccc(Oc4cccc(OC(F)(F)F)c4F)cc3)c12` (stereo unspecified) [US20230364079, Example 14]: the IC50 is < 5 nM.
